Reference: patent publication US9994556B2, “Triazole modified coumarin and biphenyl amide-based HSP90 inhibitors” (THE UNIVERSITY OF KANSAS, priority 2014, dated 2018)
“Also recorded” adds a separate entry of the source. Read-outs that look alike come from different tables or passages of the source.

Experiments:
[1] = system: Hsp90 client proteins Her2, Akt, Raf-1 and CDK6; test: Western blot analyses of Hsp90 client protein degradation in MCF-7 cell lysates; format: cell-based, human; details: MCF-7 lysates, 24 h; L = 1/2 and H = 5 times the antiproliferative IC50
Description: MCF-7 cells were cultured as described above and treated with various concentrations of drug, Geldanamycin (GDA or G) in DMSO (1% DMSO final concentration), or vehicle (DMSO) for 24 hr. Cells were harvested in cold PBS and lysed in RIPA lysis buffer containing 1 mM PMSF, 2 mM sodium orthovanadate, and protease inhibitors on ice for 1 hr. Lysates were clarified at 14000 g for 10 min at 4° C. Protein concentrations were determined using the Pierce BCA protein assay kit per the manufacturer's instructions. Equal amounts of protein (15 μg) were electrophoresed under reducing conditions, transferred to a PVDF membrane, and immunoblotted with the corresponding specific antibodies. Membranes were incubated with an appropriate horseradish peroxidase-labeled secondary antibody, developed with a chemiluminescent substrate, and visualized.

MCF-7 cells = test: MTS/PMS cell viability assay, MCF-7; format: cell-based; details: Homo sapiens, MCF7
Description: (§1) a) MTS/PMS Cell Viability Assay (SKBr3 and MCF-7 Cells)
(§2) Cells were maintained in a 1:1 mixture of Advanced DMEM/F12 (Gibco) supplemented with non-essential amino acids, L-glutamine (2 mM), streptomycin (500 μg/mL), penicillin (100 units/mL), and 10% FBS. Cells were grown to confluence in a humidified atmosphere (37° C., 5% CO2), seeded (2000/well, 100 μL) in 96-well plates, and allowed to attach overnight. Compound at varying concentrations in DMSO (1% DMSO final concentration) was added, and cells were returned to the incubator for 72 hr. At 72 hr, the number of viable cells was determined using an MTS/PMS cell proliferation kit (Promega) per the manufacturer's instructions. Cells incubated in 1% DMSO were used at 100% proliferation, and values were adjusted accordingly. IC50 values were calculated from separate experiments performed in triplicate using GraphPad Prism.

MDA-MB-468LN cell line = test: Promega CellTiter-Glo (CTG) luminescent assay, MDA-MB-468LN; format: cell-based; details: Homo sapiens, 72 hr, mean ± standard deviation
Description: (§3) b) Promega CellTiter-Glo (CTG) Luminescent Assay
(§4) Antiproliferative activities against MDA-MB-468LN, MDA1986 and JMAR cell lines were performed with 384-well white plates with the Promega CellTiter-Glo (CTG) luminescent assay with 72 hr compound treatment. Data analysis was performed using GraphPad Prism. Selected data were further checked with MTS/PMS cell viability assay with 96-well plates, which correlated well with Promega CellTiter-Glo luminescent assay.

MDA1986 cell line = test: Promega CellTiter-Glo (CTG) luminescent assay, MDA1986; format: cell-based
Description: as §3, §4

SKBr3 cells = test: MTS/PMS cell viability assay, SKBr3; format: cell-based; details: Homo sapiens, SK-BR-3
Description: as §1, §2

PC3-MM2 cells = test: Sulforhodamine B assay, PC3-MM2; format: cell-based; details: Homo sapiens, PC3MM2, mean ± standard deviation
Description: (§5) c) Sulforhodamine B Assay
(§6) The sulforhodamine B assay is used to measure drug-induced cytotoxicity and cell proliferation for large-scale drug-screening applications. Its principle is based on the ability of the protein dye sulforhodamine B to bind electrostatically on pH dependent protein basic amino acid residues of trichloroacetic acid-fixed cells. The aim is to evaluate samples showing selective growth inhibition or cell killing of particular tumor cell lines.
(§7) The SRB assay is performed by treating cells using a 10 point dose-response curve. The cells are fixed with trichloroacetic acid solution and stained with sulforhodamine B dye. The stained cells are then solubilized with 10 mM Tris buffer and read for absorbance at 565 nm.
(§8) Percentage growth is calculated at each of the drug concentration levels using the absorbance raw data.
(§9) Percentage growth inhibition is calculated as: [(Ti−Tz)/(C−Tz)]×100 for concentrations for which Ti≥Tz. [(Ti−Tz)/(Tz)]×100 for concentrations for which Ti<Tz.
(§10) Ti=Absorbance of wells at a given drug concentration level.
(§11) Tz=Absorbance time zero wells
(§12) C=Absorbance of untreated wells (media and cells only)
(§13) After growth inhibition values have been calculated, the data is plotted on Graphpad Prism software. Data is entered and plotted on a sigmoidal dose-response curve using non-linear regression.

JMAR cell line = test: Promega CellTiter-Glo (CTG) luminescent assay, JMAR; format: cell-based; details: 72 hr, mean ± standard deviation
Description: as §3, §4

LNCaP cells = test: Sulforhodamine B assay, LNCaP; format: cell-based; details: Homo sapiens, mean ± standard deviation
Description: as §5, §6, §7, §8, §9, §10, §11, §12, §13

[2] = Table 1 coumarin-based triazoles, 72 hr, mean ± standard deviation, read-out: IC50 MCF-7
[3] = Table 1 coumarin-based triazoles
[4] = Table 1 coumarin-based triazoles, 72 hr, mean ± standard deviation, read-out: IC50 MDA1986
[5] = Table 1 coumarin-based triazoles, 72 hr, mean ± standard deviation, at least two experiments in triplicate, read-out: IC50 SKBr3
[6] = Table 2 biphenyl triazole analogues, 72 hr, mean ± standard deviation, read-out: IC50 MCF-7
[7] = Table 2 biphenyl triazole analogues
[8] = Table 2 biphenyl triazole analogues, 72 hr, mean ± standard deviation, read-out: IC50 MDA1986
[9] = Table 2 biphenyl triazole analogues, 72 hr, mean ± standard deviation, read-out: IC50 SKBr3

SMILES	Hsp90 client proteins Her2, Akt and Raf-1 (Western blot) [1]	IC50 (MCF-7 cells; [2]) [nM]	IC50 (MDA-MB-468LN cell line; [3]) [nM]	IC50 (MDA1986 cell line; [4]) [nM]	IC50 (SKBr3 cells; [5]) [nM]	IC50 (PC3-MM2 cells; [3]) [nM]	IC50 (JMAR cell line; [3]) [nM]	IC50 (LNCaP cells; [3]) [nM]	IC50 (MCF-7 cells; [6]) [nM]	IC50 (MCF-7 cells; read-out: IC50 against MCF-7 cell line) [nM]	IC50 (MDA-MB-468LN cell line; [7]) [nM]	IC50 (MDA1986 cell line; [8]) [nM]	IC50 (SKBr3 cells; [9]) [nM]	IC50 (PC3-MM2 cells; [7]) [nM]	IC50 (JMAR cell line; [7]) [nM]	IC50 (LNCaP cells; [7]) [nM]	IC50 (MDA1986 cell line; read-out: IC50 against MDA1986 cell line) [nM]	IC50 (SKBr3 cells; read-out: IC50 against SKBr3 cell line) [nM]
Cc1c(OC2CCN(C)CC2)ccc2cc(NC(=O)c3cn(CC4CCCCC4)nn3)c(=O)oc12 [4q, 1-(Cyclohexylmethyl)-N-(8-methyl-7-((1-methylpiperidin-4-yl)oxy)-2-oxo-2H-chromen-3-yl)-1H-1,2,3-triazole-4-carboxamide]	degraded	1290 ± 160	990 ± 240	240 ± 320	610	3130 ± 140	300 ± 260	1200 ± 60	–	–	–	–	–	–	–	–	–	–
Cc1c(OC2CCN(C)CC2)ccc2cc(NC(=O)c3cn(-c4cccc(Cl)c4)nn3)c(=O)oc12 [4f, 1-(3-Chlorophenyl)-N-(8-methyl-7-((1-methylpiperidin-4-yl)oxy)-2-oxo-2H-chromen-3-yl)-1H-1,2,3-triazole-4-carboxamide]	degraded	1140 ± 180	4600	6400	710 ± 140	3900 ± 5110	6400	13300 ± 11900	–	–	–	–	–	–	–	–	–	–
COc1ccc(Cn2cc(C(=O)Nc3ccc(-c4ccc(OC5CCN(C)CC5)cc4)cc3)nn2)cc1 [5g, 1-(4-Methoxybenzyl)-N-(4′-((1-methylpiperidin-4-yl)oxy)-[1,1′-biphenyl]-4-yl)-1H-1,2,3-triazole-4-carboxamide]	decreased; also recorded: Clear degradation	–	–	–	–	–	–	–	270 ± 60	270	170	480 ± 90	160 ± 20	440 ± 190	610 ± 90	240 ± 70	–	–
CN1CCC(Oc2ccc(-c3ccc(NC(=O)c4cn(Cc5ccc(F)cc5)nn4)cc3)cc2)CC1 [5j, 1-(4-Fluorobenzyl)-N-(4′-((1-methylpiperidin-4-yl)oxy)-[1,1′-biphenyl]-4-yl)-1H-1,2,3-triazole-4-carboxamide]	–	–	–	–	–	–	–	–	1040 ± 80	–	1090 ± 230	930 ± 340	720 ± 180	2810 ± 1820	1390 ± 520	1640 ± 970	–	–
Cc1c(OC2CCN(C)CC2)ccc2cc(NC(=O)c3cn(-c4ccc(Br)cc4)nn3)c(=O)oc12 [4d, 1-(4-Bromophenyl)-N-(8-methyl-7-((1-methylpiperidin-4-yl)oxy)-2-oxo-2H-chromen-3-yl)-1H-1,2,3-triazole-4-carboxamide]	–	5070 ± 1860	2800 ± 500	2900 ± 330	1380 ± 50	3810 ± 4990	3600 ± 630	15200 ± 9190	–	–	–	–	–	–	–	–	–	–
Cc1c(OC2CCN(C)CC2)ccc2cc(NC(=O)c3cn(Cc4ccccc4Cl)nn3)c(=O)oc12 [4p, 1-(2-Chlorobenzyl)-N-(8-methyl-7-((1-methylpiperidin-4-yl)oxy)-2-oxo-2H-chromen-3-yl)-1H-1,2,3-triazole-4-carboxamide]	–	990 ± 80	2100 ± 520	3200 ± 1370	1300 ± 70	6660 ± 5440	3700 ± 850	> 100000	–	–	–	–	–	–	–	–	–	–
Cc1c(OC2CCN(C)CC2)ccc2cc(NC(=O)c3cn(CCc4ccccc4)nn3)c(=O)oc12 [4r, N-(8-methyl-7-((1-methylpiperidin-4-yl)oxy)-2-oxo-2H-chromen-3-yl)-1-phenethyl-1H-1,2,3-triazole-4-carboxamide]	–	550 ± 10	990 ± 100	110 ± 300	130 ± 10	1400 ± 40	740 ± 860	2360 ± 530	–	–	–	–	–	–	–	–	~110	130
Cc1ccc(Cn2cc(C(=O)Nc3cc4ccc(OC5CCN(C)CC5)c(C)c4oc3=O)nn2)cc1 [4i, 1-(4-Methylbenzyl)-N-(8-methyl-7-((1-methylpiperidin-4-yl)oxy)-2-oxo-2H-chromen-3-yl)-1H-1,2,3-triazole-4-carboxamide]	–	1500 ± 190	2400 ± 250	1500 ± 200	1210 ± 70	7320 ± 5440	1800 ± 950	7240 ± 1020	–	–	–	–	–	–	–	–	–	–
COc1cccc(Cn2cc(C(=O)Nc3cc4ccc(OC5CCN(C)CC5)c(C)c4oc3=O)nn2)c1 [4o, 1-(3-Methoxybenzyl)-N-(8-methyl-7-((1-methylpiperidin-4-yl)oxy)-2-oxo-2H-chromen-3-yl)-1H-1,2,3-triazole-4-carboxamide]	degraded	1610 ± 60	2690 ± 1330	1340 ± 310	1150 ± 190	7200 ± 150	1490 ± 310	3490 ± 300	–	–	–	–	–	–	–	–	–	–
Cc1c(OC2CCN(C)CC2)ccc2cc(NC(=O)c3cn(Cc4ccc([N+](=O)[O-])cc4)nn3)c(=O)oc12 [4l, 1-(4-Nitrobenzyl)-N-(8-methyl-7-((1-methylpiperidin-4-yl)oxy)-2-oxo-2H-chromen-3-yl)-1H-1,2,3-triazole-4-carboxamide]	–	640	810 ± 230	180 ± 220	380	2490 ± 320	260 ± 340	1280 ± 710	–	–	–	–	–	–	–	–	–	–
CN1CCC(Oc2ccc(-c3ccc(NC(=O)c4cn(CCc5ccccc5)nn4)cc3)cc2)CC1 [5c, N-(4′-((1-methylpiperidin-4-yl)oxy)-[1,1′-biphenyl]-4-yl)-1l-phenethyl-1H-1,2,3-triazole-4-carboxamide]	–	–	–	–	–	–	–	–	380 ± 100	–	360 ± 40	100 ± 230	190 ± 20	830 ± 340	580 ± 460	430 ± 220	–	–
COc1cccc(Cn2cc(C(=O)Nc3ccc(-c4ccc(OC5CCN(C)CC5)cc4)cc3)nn2)c1 [5l, 1-(3-Methoxybenzyl)-N-(4′-((1-methylpiperidin-4-yl)oxy)-[1,1′-biphenyl]-4-yl)-1H-1,2,3-triazole-4-carboxamide]	–	–	–	–	–	–	–	–	160 ± 20	–	190 ± 50	280 ± 90	320 ± 20	550 ± 370	210 ± 120	160	–	–
Cc1c(OC2CCN(C)CC2)ccc2cc(NC(=O)c3cn(Cc4ccc(C(C)(C)C)cc4)nn3)c(=O)oc12 [4k, 1-(4-tert-Butylbenzyl)-N-(8-methyl-7-((1-methylpiperidin-4-yl)oxy)-2-oxo-2H-chromen-3-yl)-1H-1,2,3-triazole-4-carboxamide]	–	1220 ± 70	740 ± 220	340 ± 90	450 ± 30	2370	580 ± 140	1840	–	–	–	–	–	–	–	–	–	–
CN1CCC(Oc2ccc(-c3ccc(NC(=O)c4cn(Cc5ccc(Br)cc5)nn4)cc3)cc2)CC1 [5e, 1-(4-Bromobenzyl)-N-(4′-((1-methylpiperidin-4-yl)oxy)-[1,1′-biphenyl]-4-yl)-1H-1,2,3-triazole-4-carboxamide]	–	–	–	–	–	–	–	–	560 ± 40	–	2800 ± 610	3100 ± 870	490 ± 30	19900 ± 27900	7800	540 ± 120	–	–
